In patent publication US12215140B2, “Method of stabilizing protein contained in specimen and solution for stabilizing protein contained in specimen” (EIKEN KAGAKU KABUSHIKI KAISHA, priority 2018, dated 2025):

Tested on: hemoglobin-haptoglobin complex
Assay: Stability of hemoglobin (as hemoglobin-haptoglobin complex) in samples preserved at 37° C. in preservation solution containing 1 unit/L haptoglobin, Hb measured by latex agglutination method (Examples 1 to 7)
Set-up: species or system human
Details: for Hb concentration / Recovery ratio with respect to Hb concentration after 0 days: 37° C.
How it was run: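 Hemoglobin (~300 µg/L) in 0.5% fecal suspension, or without feces, held at 37 °C for 0–21 days in 40 mmol/L HEPES pH 6.8, 0.1% BSA, 0.1% NaN3, 1 unit/L haptoglobin, with 0–100 mmol/L phenylboronic acid ± sugars. Hb quantified by latex agglutination with anti-human Hb rabbit polyclonal; recovery (%) relative to day 0.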

[1] = Feces 1, sugar 50 mmol/L + phenylboronic acid 15 mmol/L, 0 days
[2] = Feces 1, sugar 50 mmol/L + phenylboronic acid 15 mmol/L, 7 days
[3] = Feces 1, sugar 50 mmol/L + phenylboronic acid 15 mmol/L, 14 days
[4] = Feces 1, sugar 50 mmol/L + phenylboronic acid 15 mmol/L, 21 days
[5] = Feces 1, sugar 100 mmol/L + phenylboronic acid 15 mmol/L, 0 days
[6] = Feces 1, sugar 100 mmol/L + phenylboronic acid 15 mmol/L, 7 days
[7] = Feces 1, sugar 100 mmol/L + phenylboronic acid 15 mmol/L, 14 days
[8] = Feces 1, sugar 100 mmol/L + phenylboronic acid 15 mmol/L, 21 days
[9] = Feces 1, sugar 100 mmol/L, no phenylboronic acid, 0 days
[10] = Feces 1, sugar 100 mmol/L, no phenylboronic acid, 7 days
[11] = Feces 1, sugar 100 mmol/L, no phenylboronic acid, 14 days
[12] = Feces 1, sugar 100 mmol/L, no phenylboronic acid, 21 days
[13] = Feces 2, sugar 50 mmol/L + phenylboronic acid 15 mmol/L, 0 days
[14] = Feces 2, sugar 50 mmol/L + phenylboronic acid 15 mmol/L, 7 days
[15] = Feces 2, sugar 50 mmol/L + phenylboronic acid 15 mmol/L, 14 days
[16] = Feces 2, sugar 50 mmol/L + phenylboronic acid 15 mmol/L, 21 days
[17] = Feces 2, sugar 100 mmol/L + phenylboronic acid 15 mmol/L, 0 days
[18] = Feces 2, sugar 100 mmol/L + phenylboronic acid 15 mmol/L, 14 days
[19] = Feces 2, sugar 100 mmol/L + phenylboronic acid 15 mmol/L, 21 days
[20] = Feces 2, sugar 100 mmol/L, no phenylboronic acid, 0 days
[21] = Feces 2, sugar 100 mmol/L, no phenylboronic acid, 7 days
[22] = Feces 2, sugar 100 mmol/L, no phenylboronic acid, 14 days
[23] = Feces 2, sugar 100 mmol/L, no phenylboronic acid, 21 days
[24] = Feces 3, sugar 50 mmol/L + phenylboronic acid 15 mmol/L, 0 days
[25] = Feces 3, sugar 50 mmol/L + phenylboronic acid 15 mmol/L, 7 days
[26] = Feces 3, sugar 50 mmol/L + phenylboronic acid 15 mmol/L, 14 days
[27] = Feces 3, sugar 50 mmol/L + phenylboronic acid 15 mmol/L, 21 days
[28] = Feces 3, sugar 100 mmol/L + phenylboronic acid 15 mmol/L, 0 days
[29] = Feces 3, sugar 100 mmol/L + phenylboronic acid 15 mmol/L, 7 days
[30] = Feces 3, sugar 100 mmol/L + phenylboronic acid 15 mmol/L, 14 days
[31] = Feces 3, sugar 100 mmol/L + phenylboronic acid 15 mmol/L, 21 days
[32] = Feces 3, sugar 100 mmol/L, no phenylboronic acid, 0 days
[33] = Feces 3, sugar 100 mmol/L, no phenylboronic acid, 7 days
[34] = Feces 3, sugar 100 mmol/L, no phenylboronic acid, 14 days
[35] = Feces 3, sugar 100 mmol/L, no phenylboronic acid, 21 days
[36] = No feces, sugar 50 mmol/L + phenylboronic acid 15 mmol/L, 7 days
[37] = No feces, sugar 50 mmol/L + phenylboronic acid 15 mmol/L, 14 days
[38] = No feces, sugar 100 mmol/L + phenylboronic acid 15 mmol/L, 0 days
[39] = No feces, sugar 100 mmol/L + phenylboronic acid 15 mmol/L, 7 days
[40] = No feces, sugar 100 mmol/L + phenylboronic acid 15 mmol/L, 14 days
[41] = No feces, sugar 100 mmol/L + phenylboronic acid 15 mmol/L, 21 days
[42] = No feces, sugar 100 mmol/L, no phenylboronic acid, 7 days
[43] = No feces, sugar 100 mmol/L, no phenylboronic acid, 14 days
[44] = No feces, sugar 100 mmol/L, no phenylboronic acid, 21 days

SMILES: OC[C@H]1O[C@@](CO)(O[C@H]2O[C@H](CO)[C@@H](O)[C@H](O)[C@H]2O)[C@@H](O)[C@@H]1O [Sucrose, sucrose]
- Hb concentration [1]: 291 µg/L
- Recovery ratio with respect to Hb concentration after 0 days [1]: 100%
- Hb concentration [2]: 281 µg/L
- Recovery ratio with respect to Hb concentration after 0 days [2]: 97%
- Hb concentration [3]: 274 µg/L
- Recovery ratio with respect to Hb concentration after 0 days [3]: 94%
- Hb concentration [4]: 268 µg/L
- Recovery ratio with respect to Hb concentration after 0 days [4]: 92%
- Hb concentration [5]: 286 µg/L
- Recovery ratio with respect to Hb concentration after 0 days [5]: 100%
- Hb concentration [6]: 272 µg/L
- Recovery ratio with respect to Hb concentration after 0 days [6]: 95%
- Hb concentration [7]: 270 µg/L
- Recovery ratio with respect to Hb concentration after 0 days [7]: 94%
- Hb concentration [8]: 258 µg/L
- Recovery ratio with respect to Hb concentration after 0 days [8]: 90%
- Hb concentration [9]: 264 µg/L
- Recovery ratio with respect to Hb concentration after 0 days [9]: 100%
- Hb concentration [10]: 115 µg/L
- Recovery ratio with respect to Hb concentration after 0 days [10]: 44%
- Hb concentration [11]: 70 µg/L
- Recovery ratio with respect to Hb concentration after 0 days [11]: 27%
- Hb concentration [12]: 80 µg/L
- Recovery ratio with respect to Hb concentration after 0 days [12]: 30%
- Hb concentration [13]: 273 µg/L
- Recovery ratio with respect to Hb concentration after 0 days [13]: 100%
- Hb concentration [14]: 266 µg/L
- Recovery ratio with respect to Hb concentration after 0 days [14]: 97%
- Hb concentration [15]: 232 µg/L
- Recovery ratio with respect to Hb concentration after 0 days [15]: 85%
- Hb concentration [16]: 212 µg/L
- Recovery ratio with respect to Hb concentration after 0 days [16]: 78%
- Hb concentration [17]: 267 µg/L
- Recovery ratio with respect to Hb concentration after 0 days [17]: 100%
- Recovery ratio with respect to Hb concentration after 0 days (Feces 2, sugar 100 mmol/L + phenylboronic acid 15 mmol/L, 7 days): 96%
- Hb concentration [18]: 236 µg/L
- Recovery ratio with respect to Hb concentration after 0 days [18]: 88%
- Hb concentration [19]: 219 µg/L
- Recovery ratio with respect to Hb concentration after 0 days [19]: 82%
- Hb concentration [20]: 270 µg/L
- Recovery ratio with respect to Hb concentration after 0 days [20]: 100%
- Hb concentration [21]: 96 µg/L
- Recovery ratio with respect to Hb concentration after 0 days [21]: 36%
- Hb concentration [22]: 49 µg/L
- Recovery ratio with respect to Hb concentration after 0 days [22]: 18%
- Hb concentration [23]: 31 µg/L
- Recovery ratio with respect to Hb concentration after 0 days [23]: 11%
- Hb concentration [24]: 286 µg/L
- Recovery ratio with respect to Hb concentration after 0 days [24]: 100%
- Hb concentration [25]: 234 µg/L
- Recovery ratio with respect to Hb concentration after 0 days [25]: 82%
- Hb concentration [26]: 209 µg/L
- Recovery ratio with respect to Hb concentration after 0 days [26]: 73%
- Hb concentration [27]: 195 µg/L
- Recovery ratio with respect to Hb concentration after 0 days [27]: 68%
- Hb concentration [28]: 272 µg/L
- Recovery ratio with respect to Hb concentration after 0 days [28]: 100%
- Hb concentration [29]: 230 µg/L
- Recovery ratio with respect to Hb concentration after 0 days [29]: 85%
- Hb concentration [30]: 201 µg/L
- Recovery ratio with respect to Hb concentration after 0 days [30]: 74%
- Hb concentration [31]: 187 µg/L
- Recovery ratio with respect to Hb concentration after 0 days [31]: 69%
- Hb concentration [32]: 267 µg/L
- Recovery ratio with respect to Hb concentration after 0 days [32]: 100%
- Hb concentration [33]: 89 µg/L
- Recovery ratio with respect to Hb concentration after 0 days [33]: 33%
- Hb concentration [34]: 55 µg/L
- Recovery ratio with respect to Hb concentration after 0 days [34]: 21%
- Hb concentration [35]: 40 µg/L
- Recovery ratio with respect to Hb concentration after 0 days [35]: 15%
- Recovery ratio with respect to Hb concentration after 0 days (No feces, sugar 50 mmol/L + phenylboronic acid 15 mmol/L, 0 days): 100%
- Hb concentration [36]: 253 µg/L
- Recovery ratio with respect to Hb concentration after 0 days [36]: 93%
- Hb concentration [37]: 246 µg/L
- Recovery ratio with respect to Hb concentration after 0 days [37]: 91%
- Recovery ratio with respect to Hb concentration after 0 days (No feces, sugar 50 mmol/L + phenylboronic acid 15 mmol/L, 21 days): 95%
- Hb concentration [38]: 267 µg/L
- Recovery ratio with respect to Hb concentration after 0 days [38]: 100%
- Hb concentration [39]: 247 µg/L
- Recovery ratio with respect to Hb concentration after 0 days [39]: 93%
- Hb concentration [40]: 241 µg/L
- Recovery ratio with respect to Hb concentration after 0 days [40]: 90%
- Hb concentration [41]: 260 µg/L
- Recovery ratio with respect to Hb concentration after 0 days [41]: 97%
- Recovery ratio with respect to Hb concentration after 0 days (No feces, sugar 100 mmol/L, no phenylboronic acid, 0 days): 100%
- Hb concentration [42]: 228 µg/L
- Recovery ratio with respect to Hb concentration after 0 days [42]: 93%
- Hb concentration [43]: 223 µg/L
- Recovery ratio with respect to Hb concentration after 0 days [43]: 91%
- Hb concentration [44]: 222 µg/L
- Recovery ratio with respect to Hb concentration after 0 days [44]: 91%
- recovery ratio of hemoglobin in the sample (sugar 100 mmol/L further added to other arylboronic acids (3-CPBA, 3-HPBA, 3-APBA) 15 mmol/L, Feces 1, Feces 2, Feces 3): further improved
- recovery ratio of hemoglobin in the samples containing fecal specimens (sugar 100 mmol/L, preservation solutions containing no phenylboronic acid): does not improve
- recovery ratio of hemoglobin in the sample (sugar 50 or 100 mmol/L further added to phenylboronic acid 15 mmol/L, Feces 1, Feces 2, Feces 3): further improved
- recovery ratio of hemoglobin in the samples containing feces (sugar added to phenylboronic acid 15 mmol/L, Feces 1, Feces 2, Feces 3): improved depending on the added concentration
